{"source": "patent US20200384188A1", "about": "“SYSTEMS, DEVICES, FORMULATIONS AND METHODS FOR CONTROLLED DRUG DELIVERY” (priority 2017, published 2020)", "system": "rats (Group 1 Sprague-Dawley, Group 4 Han Wister)", "assay": "Randall-Selitto test (Brewers Yeast-inflamed hind paw, analgesy meter)", "format": "in vivo, rat", "details": "for Force (g) applied to the inflamed (right) paw, individual animals / Force (g) applied to the inflamed (right) paw, mean / % change from baseline, force on inflamed (right) paw / % change from baseline, force on untreated (left) paw / Force (g) applied, Left paw, individual animals / Force (g) applied, Right Paw (inflamed), individual animals / Force (g) applied to the untreated (left) paw, mean: 50 mg/kg sc; for Force (g) applied to the inflamed (right) paw, individual animals: animals R0001-R0006; for Force (g) applied to the inflamed (right) paw, individual animals / Force (g) applied, Left paw, individual animals / Force (g) applied, Right Paw (inflamed), individual animals: 50 mg/kg", "description": "The Randall Selitto test is a tool to assess the response thresholds to mechanical pressure stimulation following induction of a hyperalgesic state by injection of an inflammatory agent and is considered a measure of mechanical hyperalgesia (Randall and Selitto, 1957). This involves application of an increasing force to the surface of the paw until withdrawal or vocalization occurs. The test can produce results similar to decreases on pressure pain thresholds observed in clinical conditions, such as fibromyalgia, myofascial pain, or osteoarthritis (Arendt-Nielsen et al., 2010; Bennett, 2007; Finan et al., 2013; Hsu et al., 2010). Centrally and peripherally acting effects can be detected using this model, for example, opioids increase the mechanical threshold to the normal and inflamed paw, whereas nonsteroidal anti-inflammatory drugs are only effective in the inflamed paw.\nEighteen male Sprague-Dawley rats were obtained from Charles River, Margate, United Kingdom, and were used for dosing. Animals weighed between 319 and 419 g on the day of dosing. Eight male Han Wister rats were obtained from Charles River, Margate, United Kingdom and used for Group 4. Animals weighed between 381 and 504 g on the day of dosing. The animals were assessed according to Table 1.\nAnimals were dosed subcutaneously via a motorized insulin pump.\nThe threshold of a pain response to increasing pressure was measured using an analgesy meter (Ugo Basile, Italy). The animal was gently held by a competent operator, and the hind paw of the animal was positioned over a convex surface (a cone-shaped pusher). A gradually increasing pressure (g) was applied to the upper surface of the paw. The force was continuously monitored by a pointer moving along a linear scale and was stopped by depression of a foot pedal when the animal struggled. A cut-off value of 300 g was adopted (based on available literature and experience).\nPre-dose Phase: The pressure pain threshold of each animal was tested on two occasions (once in the morning and once in the afternoon). This allowed animals to acclimate to the procedure.\nDay of Dosing: On the day of dosing, each animal was administered a 0.1 mL 20% suspension of Brewers Yeast subcutaneously into the sub-plantar of the right hind paw at approximately 180 minutes prior to ketamine administration. Immediately prior to ketamine administration (Group 4), 15 and 30 minutes and 1, 2, and 4 hours post administration of ketamine, each animal was assessed for a response to increasing pressure on both hind paws (Group 1 used right hind paw, Group 4 used both hind paws), using the analgesy meter. Signs of anesthesia were recorded.", "note": "Values joined by “and” are separate entries in the source; they are usually repeats but may differ in a detail not shown here. Identical values can stand only once."}
{"compound": "CNC1(c2ccccc2Cl)CCCCC1=O", "note": "(centres unmarked) [ketamine]", "values": [{"measurement": "Force (g) applied to the inflamed (right) paw, individual animals", "setting": "Group 1, 0.25 h", "value": "90 g (2×) and 20 g and 40 g (2×) and 120 g"}, {"measurement": "Force (g) applied to the inflamed (right) paw, mean", "setting": "Group 1, 0.25 h, n=6", "value": 153.3, "unit": "g"}, {"measurement": "Force (g) applied to the inflamed (right) paw, individual animals", "setting": "Group 1, 0.5 h", "value": "100 g and 130 g and 80 g and 170 g and 120 g and 40 g"}, {"measurement": "Force (g) applied to the inflamed (right) paw, mean", "setting": "Group 1, 0.5 h, n=6", "value": 66.7, "unit": "g"}, {"measurement": "Force (g) applied to the inflamed (right) paw, individual animals", "setting": "Group 1, 1 h", "value": "130 g and 120 g (2×) and 80 g (2×) and 60 g"}, {"measurement": "Force (g) applied to the inflamed (right) paw, mean", "setting": "Group 1, 1 h, n=6", "value": 106.7, "unit": "g"}, {"measurement": "Force (g) applied to the inflamed (right) paw, individual animals", "setting": "Group 1, 2 h", "value": "60 g and 110 g and 50 g and 200 g and 120 g and 140 g"}, {"measurement": "Force (g) applied to the inflamed (right) paw, mean", "setting": "Group 1, 2 h, n=6", "value": 98.3, "unit": "g"}, {"measurement": "Force (g) applied to the inflamed (right) paw, individual animals", "setting": "Group 1, 4 h", "value": "120 g (2×) and 110 g and 140 g and 90 g (2×)"}, {"measurement": "Force (g) applied to the inflamed (right) paw, mean", "setting": "Group 1, 4 h, n=6", "value": 113.3, "unit": "g"}, {"measurement": "pressure required to initiate a response, in words", "setting": "Group 1, 0.5 to 2 hours post-dose versus the 15 minute time point, majority of animals", "value": "increase in pressure required to initiate a response"}, {"measurement": "% change from baseline, force on inflamed (right) paw", "setting": "Group 4, 0.25 h", "value": "−5.7", "unit": "%"}, {"measurement": "% change from baseline, force on untreated (left) paw", "setting": "Group 4, 0.25 h", "value": "−17.0", "unit": "%"}, {"measurement": "Force (g) applied, Left paw, individual animals", "setting": "Group 4, 0.25 h", "value": "60 g and 100 g and 180 g and 90 g and 80 g and 130 g and 110 g and 30 g"}, {"measurement": "Force (g) applied, Right Paw (inflamed), individual animals", "setting": "Group 4, 0.25 h", "value": "10 g and 30 g and 80 g and 50 g and 40 g and 60 g (2×) and 0 g"}, {"measurement": "Force (g) applied to the inflamed (right) paw, mean", "setting": "Group 4, 0.25 h, n=8", "value": 41.3, "unit": "g"}, {"measurement": "Force (g) applied to the untreated (left) paw, mean", "setting": "Group 4, 0.25 h, n=8", "value": 97.5, "unit": "g"}, {"measurement": "% change from baseline, force on inflamed (right) paw", "setting": "Group 4, 0.5 h", "value": 34.3, "unit": "%"}, {"measurement": "% change from baseline, force on untreated (left) paw", "setting": "Group 4, 0.5 h", "value": "−9.6", "unit": "%"}, {"measurement": "Force (g) applied, Left paw, individual animals", "setting": "Group 4, 0.5 h", "value": "120 g (2×) and 130 g (2×) and 150 g and 90 g and 70 g and 40 g"}, {"measurement": "Force (g) applied, Right Paw (inflamed), individual animals", "setting": "Group 4, 0.5 h", "value": "40 g (2×) and 50 g and 80 g and 90 g and 70 g and 100 g and 0 g"}, {"measurement": "Force (g) applied to the inflamed (right) paw, mean", "setting": "Group 4, 0.5 h, n=8", "value": 58.8, "unit": "g"}, {"measurement": "Force (g) applied to the untreated (left) paw, mean", "setting": "Group 4, 0.5 h, n=8", "value": 106.3, "unit": "g"}, {"measurement": "% change from baseline, force on inflamed (right) paw", "setting": "Group 4, 1 h", "value": 65.7, "unit": "%"}, {"measurement": "% change from baseline, force on untreated (left) paw", "setting": "Group 4, 1 h", "value": "−10.6", "unit": "%"}, {"measurement": "Force (g) applied, Left paw, individual animals", "setting": "Group 4, 1 h", "value": "80 g (3×) and 160 g and 100 g (2×) and 200 g and 40 g"}, {"measurement": "Force (g) applied, Right Paw (inflamed), individual animals", "setting": "Group 4, 1 h", "value": "80 g and 60 g and 140 g and 40 g and 70 g (2×) and 90 g and 30 g"}, {"measurement": "Force (g) applied to the inflamed (right) paw, mean", "setting": "Group 4, 1 h, n=8", "value": 72.5, "unit": "g"}, {"measurement": "Force (g) applied to the untreated (left) paw, mean", "setting": "Group 4, 1 h, n=8", "value": 105.0, "unit": "g"}, {"measurement": "% change from baseline, force on inflamed (right) paw", "setting": "Group 4, 2 h", "value": 165.7, "unit": "%"}, {"measurement": "% change from baseline, force on untreated (left) paw", "setting": "Group 4, 2 h", "value": "−24.5", "unit": "%"}, {"measurement": "Force (g) applied, Left paw, individual animals", "setting": "Group 4, 2 h", "value": "100 g (2×) and 70 g and 130 g and 80 g (2×) and 90 g and 60 g"}, {"measurement": "Force (g) applied, Right Paw (inflamed), individual animals", "setting": "Group 4, 2 h", "value": "180 g and 80 g (2×) and 240 g and 70 g (2×) and 120 g and 90 g"}, {"measurement": "Force (g) applied to the inflamed (right) paw, mean", "setting": "Group 4, 2 h, n=8", "value": 116.3, "unit": "g"}, {"measurement": "Force (g) applied to the untreated (left) paw, mean", "setting": "Group 4, 2 h, n=8", "value": 88.8, "unit": "g"}]}
